According to US20200182861A1, “METHOD FOR DIFFERENTIATION OF PLURIPOTENT STEM CELLS INTO VASCULAR BED CELLS” (Hoffmann-La Roche Inc., priority 2011, published 2020):

Legend:
pluripotent stem cells [1] = assay: VSMC induction, flow cytometric CD31/CD140b distribution; format: cell-based, human; settings: induction medium replaced by RPMI medium with 0.5 μM IWR
Text: Cell types differed by morphology as well as by marker expression. Cobblestone-like cells with tight cell-cell contacts expressed the endothelial-specific marker VE-Cadherin. Flattened and spindle-like shaped cells stained positive for Smooth Muscle Actin (αSMA), indicating a vascular smooth muscle cell (VSMC) identity. In flow cytometric analysis cells separated into a major fraction of CD31^+/CD140^+ cells and minor fraction of CD31^−/CD140b^+ cells (FIG. 10).

human PSCs = assay: Endothelial induction by GSK3 inhibitors, flow cytometric VE-Cadherin (CD144) expression on day 5; format: cell-based
Method: (§1) The potential of the most widely used commercial GSK30 inhibitors and CP21R7 to activate β-catenin-mediated TCF/LEF transcription in human PA-1 reporter cells (DeAlmeida et al., 2007) was evaluated. […] Unmodified PA-1 cells are used to measure cellular viability via ATP levels and GLI-luciferase responsive reporter PA-1 cells as counter screen to monitor changes in general transcriptional activity. […] On the outcome of the β-Catenin reporter assay, three GSk3β inhibitors namely BIO, CHIR and CP were exploited for their potential to drive vascular lineage commitment of human PSCs. In addition to the listed inhibitors we include SB216763 (SB) due to its structure similarity to CP (see FIG. 18). Pluripotent stem cells were (i) plated as single-cells on mTeSR1 medium supplemented with Y-27632 a Rho-kinase inhibitor (Watanabe et al., 2007); (ii) incubated in priming medium (N2B27 medium supplemented with a GSK303 inhibitor) and (iii) incubated in induction medium (StemPro SFM 34 medium supplemented with Vascular Endothelial Growth Factor (VEGF; Sumi et al., 2008)) as outlined above under 1 (i) and (ii).
The Following GSK3 Inhibitors were Used: CHIR99021 GSK3-Inhibitor: Catalogue Number: 361559 from Merck Millipore SB216763 GSK3-Inhibitor: Catalogue Number: 361566 from Merck Millipore BIO GSK3-Inhibitor: Catalogue Number: 3 361550 from Merck Millipore CP21R7: 3-(3-Amino-phenyl)-4-(1-methyl-1H-indol-3-yl)-pyrrole-2,5-dione (also referred to as “compound 21” herein; see e.g. L. Gong et al; Bioorganic & Medicinal Chemistry Letters 20 (2010), 1693-1696).
Proliferation into vascular bed cells was detected on Day 5. Vascular identity is confirmed by the expression of vascular endothelial-cadherin (VE-Cadherin). The capability to induce vascular bed cells was determined by VE-Cadherin (CD144) expression on day 5 (FIG. 19). […] Remarkably, up to 35% of cells expressed CD144 at an optimal concentration of 1 μM from day five on. […] CHIR, which has a divergent chemical structure than CP induced CD144 expression also in a parabolic curve reaching an optimum at 6 μM. […] Although, SB and CP share the same chemical backbone, divergent moieties may influence the chemical properties, e.g. cellular permeability or solubility. In carrier treated cells no VE-CADHERIN expression was detected (FIG. 19).

[2] = system: human embryonic stem cell; settings: 5 μM 3 days, then VEGF 2 days; Tatsumi et al.; cited from earlier work
[3] = system: β-catenin-mediated TCF/LEF transcription; assay: TCF/LEF reporter assay in human PA-1 reporter cells; format: cell-based; settings: for dose-response activation curve: dose-response assay
Method: FIG. 19: Compound selection. TCF/LEF reporter assay in human PA-1 reporter cells (DeAlmeida et al., 2007). After the treatment of reporter cells with GSk3 inhibitors at indicated concentrations β-catenin-mediated TCF/LEF transcriptional activity was measured as luciferase activity. The Compound Cp21R7 induced highest luciferase activity at a concentration of 3 μM.
as §1

[4] = system: GLI-luciferase responsive reporter PA-1 cells; assay: GLI-luciferase responsive reporter PA-1 cells counter screen (general transcriptional activity); format: cell-based, human
Method: as §1

Unmodified PA-1 cells = assay: Cellular viability via ATP levels in unmodified PA-1 cells; format: cell-based, human
Method: as §1

hESCs = assay: Direct comparison BIO versus CP21R7 to differentiate hESCs into CD144+ endothelial cells; format: cell-based, human
Method: FIG. 6: Direct comparison BIO versus CP21R7 to differentiate hESCs into endothelial cells CD144+. hESCs have been differentiated in monolayer conditions in parallel using different concentrations at Day 1 (0 μM, 0.5 μM, 1 μM, 2 μM) for the BIO or for the COMPOUND 21 (CP21R7) as supplement to the carrier medium N2B27, followed at Day 4 with induction medium VEGF-A 50 ng/ml and Forskolin 5 μM for all the conditions.
The method of Tatsumi et al employs the BIO inhibitor at different concentrations as supplement to the N2B27. Although Tatsumi et al. describes that the pluripotent stem cells were differentiated to endothelial cells with about 20% efficiency (determined by endothelial cells expressing the surface marker CD144), we were not able to reproduce such results.

[5] = system: Human Embryonic Stem cells; assay: Quantification of CD144+ stem cell-derived endothelial cells by image based high content analysis
Method: FIG. 2A: Quantification CD144+ Stem Cell-Derived Endothelial Cells by image based high content analysis (HCA). Human Embryonic Stem cells have been differentiated in monolayer conditions with different small molecules. Upper and middle panel: Day 1 priming medium with different compounds; Day 4 induction medium+VEGF-A 50 ng/ml. Carrier N2B27 alone (upper panel, left); Wnt3a 150 ng/ml added to the priming medium (upper panel, right); SB216763 6 μM added to the priming medium (middle panel, left), CHIR 9902 2 μM added to the priming medium (middle panel, right). Lower panels: Day 1 priming medium with 2 μM Compound 21 (CP21R7); Day 4 induction medium+VEGF-A 50 ng/ml (lower panel, left) and Day 4 induction medium+VEGF-A 50 ng/ml+Forskolin 5 μM (lower panel, right). DAPI (cell nuclei) CD144 (membrane staining).
FIG. 2B: Quantification graph: Percent CD144+ positive cells.
(§2) Before the enzymatic dissociation of hPSC colonies using StemPro Accutase (Invitrogen) cells are preincubated for one hour with 10 μM ROCK-Inhibitor Y27632. 35.000 single hPSCs per cm^2 are plated onto growth factor reduced Matrigel (BD bioscience) coated cell culture plates in TeSR2 medium supplemented with 10 μM ROCK-Inhibitor. On day1 attachment medium is exchanged to N2B27 (Gibco) medium supplemented with (a) 2 μM Compound 21 (CP21R7) or (b) 1 μM Compound 21 (CP21R7) and 25 ng/ml BMP4 (R&D Systems). Cells are cultivated for additional 3 days without media change.
(§3) On day 4 priming medium is replaced with StemPro-34 SFM medium (Invitrogen) supplemented with (a) 50 ng/ml VEGF and 5 μM Forskolin or (b) 200 ng/ml VEGF and 2 μM Forskolin. On day 5 induction medium is withdrawn and cells are used for MACS separation of CD144+ cells.

pluripotent stem cells [6] = assay: Flow cytometry of CD144+ endothelial cells after monolayer differentiation; format: cell-based, human
Method: FIG. 3: Flow Cytometry analysis of the pluripotent stem cell-derived CD144+ endothelial cells. Endothelial cells differentiated in monolayer conditions (priming medium 2 μM CP21R7, induction medium VEGF-A 50 ng/ml and Forskolin 5 μM) were analyzed before and after MACS sorting for the CD144+ expression. Before MACS Sorting 32.5% CD144+ endothelial cells and after MACS sorting 96.5% CD144+ endothelial cells.
as §2, §3

PSCs [7] = assay: Genome-wide gene expression analysis during differentiation; format: cell-based, human
PSCs [8] = assay: Immunostainings of differentiation markers over time; format: cell-based, human
Text: Immunostainings of SOX17, OCT4, T-BRACHYURY, PECAM-1 and VE-CADHERIN support the transcriptome data (Quantification shown in FIG. 9). The protein expression of the pan-mesodermal marker T-BRACHYURY confirms an intermediate PS-like cell stage. […] The vast majority of cells reached a T-BRACHYURY peak expression on day three. On day four the expression diminished and disappeared, thereby mimicking its specific embryonic expression pattern (Tam and Loebel, 2007). Loss of pluripotency was monitored by the time-dependent decline of OCT4 expression. […] Induction of endothelial cell identity was determined by the co-expression of platelet-endothelial cell adhesion molecule-1 (PECAM1) and VE-CADHERIN. Endothelial marker expression was detected upon administration of VEGF on day 4 (FIG. 9). […] Our differentiation system enables high throughput derivation of endothelial cells within 5 days through a transient emergence of primitive streak cells.

SC-derived ECs = assay: Tube formation assay of SC-derived ECs on Matrigel matrix; format: cell-based, human; settings: data not shown
Method: In order to define the endothelial phenotype more profoundly, the angiogenic potential, the ability to uptake DiI-acetylated low-density lipoprotein (DiI-ac-LDL) was assessed and the dynamic modulation of the barrier function was monitored. For tube formation assays SC-derived ECs were seeded onto a Matrigel matrix.

## O=C(Nc1cccc2cccnc12)c1ccc(N2C(=O)[C@@H]3[C@H](C2=O)[C@@H]2C=C[C@H]3C2)cc1 [IWR]
Pluripotent stem cells [1]
  distribution of CD31+/CD140b− and CD31−/CD140b+ cells: inverted distribution

## O=C1Nc2cc(Br)ccc2/C1=C1/Nc2ccccc2/C1=N\O [BIO, (2′Z, 3′E)-6-bromoindirubin-3′-oxime]
Human PSCs; data not shown
  toxicity on single cells: toxic on single cells
[2]
  efficiency determined by endothelial cells expressing the surface marker CD144: about 20%
[3]
  dose-response activation curve: steep activation curve
[4]; data not shown
  GLI-mediated luciferase activity: three-fold increase
Unmodified PA-1 cells; concentration of 10 μM, data not shown
  toxicity: highly toxic
hESCs; 0.5 μM at Day 1 in N2B27, induction medium VEGF-A 50 ng/ml and Forskolin 5 μM
  maximum expression of the CD144: 5%
hESCs; already at concentrations of 1 μM
  cytotoxicity: strong cytotoxicity
hESCs; the other concentrations (1 μM, 2 μM)
  toxicity to the cells: toxic to the cells

## Cn1cc(C2=C(c3ccc(Cl)cc3Cl)C(=O)NC2=O)c2ccccc21 [SB216763, 3-(2,4-Dichlorophenyl)-4-(1-methyl-1H-indol-3-yl)-1H-pyrrole-2,5-dione, reference compound]
Human PSCs; day 5, flow cytometry
  CD144 expression: no CD144 expression was observed
[5]; 6 μM added to the priming medium, day 4 induction medium + VEGF-A 50 ng/ml
  CD144+ cells: 0.5%
[3]; concentration dependent administration
  TCF/LEF luciferase expression: negligible

## Cn1cc(C2=C(c3cccc(N)c3)C(=O)NC2=O)c2ccccc21 [CP21R7, 3-(3-Amino-phenyl)-4-(1-methyl-1H-indol-3-yl)-pyrrole-2,5-dione]
Human PSCs; bell-shaped / parabolic curve, day 5
  optimal concentration for CD144 expression: 1 µM
Human PSCs; optimal concentration of 1 μM, from day five on
  cells expressed CD144: up to 35%
[5]; 2 μM added to the priming medium, day 4 induction medium + VEGF-A 50 ng/ml
  CD144+ cells: 40.2%
[5]; 2 μM added to the priming medium, induction medium + VEGF-A 50 ng/ml + Forskolin 5 μM
  CD144+ cells: 54.6%
[3]; at 3 μM
  maximum increased luciferase activity: 566 fold
[3]; bell-shaped curve
  concentration of highest luciferase activity: 3 µM
[3]
  dose-response activation curve: steep activation curve
Pluripotent stem cells [6]; priming 1 μM CP with 25 ng/ml BMP4, induction 200 ng/ml VEGF with 2 μM Forskolin
  CD144 expression, cells on day six: up to 85%
Pluripotent stem cells [6]; priming medium 2 μM CP21R7, induction medium VEGF-A 50 ng/ml and Forskolin 5 μM
  CD144+ endothelial cells before MACS sorting: 32.5%
[4]
  general transcriptional activity: minor increases of general transcriptional activity
Unmodified PA-1 cells; at maximum luciferase activity
  cell proliferation: only a modest gain of cell proliferation
hESCs; dose response 0.5 μM, 1 μM, 2 μM, induction VEGF-A 50 ng/ml and Forskolin 5 μM
  CD144 expression: up to 35%
PSCs [7]; 24 hours upon combined CP and BMP4 treatment
  mesoderm markers MIXL1, T/BRACHYURY, FGF4 and EOMES: Upregulation
PSCs [7]; 24 hours upon combined CP and BMP4 treatment, data not shown
  pluripotency markers NANOG, UIF1 and SOX2: downregulated
PSCs [8]; CP21 alone, day three
  SOX17+ cells: salt and pepper staining pattern of SOX17^+ cells
PSCs [8]; combined application of CP and BMP4
  SOX17+ cells: prevented the appearance of endodermal SOX17^+ cells
PSCs [8]; treatment with CP and BMP4
  T-BRACHYURY expression: induced T-BRACHYURY expression quickly after one day

## VEGF
PSCs [7]; within the first 24 hours upon VEGF, data not shown
  upregulation of endothelial markers CD34, PECAM1, CDH5 and vWF: more than 100 fold

## C[S+]([O-])CCCCN=C=S (centres unmarked) [Sulforaphane]
SC-derived ECs
  tube formation, number of nodes, length of tubes: perturbed tube formation and reduced the number of nodes as well as the length of tubes

B1: Wnt3a: Wnt3a added to the priming medium (protein, UniProt P56704 19-352, looked up)
Protein Wnt-3a: SYPIWWSLAVGPQYSSLGSQPILCASIPGLVPKQLRFCRNYVEIMPSVAEGIKIGIQECQHQFRGRRWNCTTVHDSLAIFGPVLDKATRESAFVHAIASAGVAFAVTRSCAEGTAAICGCSSRHQGSPGKGWKWGGCSEDIEFGGMVSREFADARENRPDARSAMNRHNNEAGRQAIASHMHLKCKCHGLSGSCEVKTCWWSQPDFRAIGDFLKDKYDSASEMVVEKHRESRGWVETLRPRYTYFKVPTERDLVYYEASPNFCEPNPETGSFGTRDRTCNVSSHGIDGCDLLCCGRGHNARAERRREKCRCVFHWCCYVSCQECTRVYDVHTCK
[5]; 150 ng/ml added to the priming medium, day 4 induction medium + VEGF-A 50 ng/ml
  CD144+ cells: 0.8%
